We go through 53 compounds from patent US20100022559A1, “BISOXIMES AS FUNGICIDES” (BAYER CROPSCIENCE AG, priority 2006, published 2010).

The nature of one data set: logP determination by HPLC on a reversed-phase column (C 18), EEC Directive 79/831 Annex V.A8. Type of data set: physicochemical. The conditions noted are these: method marker [a] (footnote not shown); isomer A / isomer B / isomer mixture as noted in the cell. The procedure:
The stated logP values were determined in accordance with EEC Directive 79/831 Annex V.A8 by HPLC (high performance liquid chromatography) on a reversed-phase column (C 18). Temperature: 43° C.
With `CC(=NOCC1(CON=C(C)c2cccc(C)n2)CO1)c1cccc(C)n1` (stereo not drawn) [compound 220], the logP is 2.24^[a].

`CC(=NOCC(O)(CON=C(C)c1cccc(C)n1)CON=C(C)c1cccc(C)n1)c1cccc(C)n1` (stereo not drawn) [compound 221]: the logP was 2.65^[a).

As for `CCCC(=NOCCON=C(CCC)c1cccc(C)n1)c1cccc(C)n1` [compound 226], the logP was 5.18^[a].

As for `CCCC(=NOCCCCON=C(CCC)c1cccc(C)n1)c1cccc(C)n1` [compound 227], the logP was 6.26^[a].

Consider `CC(=NOCCCON=C(C)c1ccc(C)nc1)c1ccc(C)nc1` [compound 228], for which the logP was 1.27^[a].

For the compound `CC(=NOCCCON=C(C)c1cccc(C(C)C)n1)c1cccc(C(C)C)n1` [compound 230], the logP was 7.36^[a].

Staying with this data set, now noted: method marker [b]; isomer A / isomer B / isomer mixture as noted in the cell.
Regarding `C=C(CON=C(C)c1ccc(C)cn1)CON=C(C)c1cccc(C)n1` [compound 209], the logP is reported as 3.33^b].

For the compound `C=C(CON=C(C)c1cccc(C)n1)CON=C(N)c1cc(C(F)(F)F)cc(C)n1` [compound 210], the logP was 4.37^[b].

With `C=C(CON=C(C)c1cccc(C)n1)CON=C(C)c1cc(C(F)(F)F)cc(C)n1` [compound 211], the logP is 5.70^[b].

In the case of `Cc1cccc(C(=NOCC(C)CON=C(c2cccc(C)n2)C(F)(F)F)C(F)(F)F)n1` (stereo not drawn) [compound 214], the logP was 4.83^[b].

As for `CC(=NOCC1OC(C)(C)OC1CON=C(C)c1cccc(C)n1)c1cccc(C)n1` (stereo not drawn) [compound 215], the logP is 3.09^[b].

As to `C=C(CON=C(C)c1cccc(C)n1)CON=C(C)c1nc2ccccc2s1` [compound 218], the logP was 4.79^[b].

As for `C=C(CON=C(C)c1cccc(C)n1)CON=C(N)c1ncc(F)cc1F` [compound 242], the logP is 2.48^[b).

Take `C=C(CON=C(C)c1cccc(C)n1)CON=C(N)c1ncc(C(F)(F)F)cc1Cl` [compound 245]: the logP is 3.50^[b].

Take `C=C(CON=C(C)c1cccc(C)n1)CON=C(N)c1ncc(Cl)cc1Cl` [compound 246]: the logP was 3.00^[b].

On to `COc1cccc(C(C)=NOCC(=O)CON=C(C)c2cccc(OC)n2)n1` [compound 247], for which the logP is 4.61^[b].

Turning to `C=C(CON=C(C)c1cccc(C)n1)CON=C(C)c1nccc(OCC)n1` [compound 249], the logP was 3.17^[b].

On to `C=C(CON=C(C)c1nccc(OCC)n1)CON=C(C)c1nccc(OCC)n1` [compound 252], for which the logP is 3.42^[b].

Staying with this data set, now noted: value marked [a].
Regarding `CC(=NOCCCON=C(C)c1nc(C)c(C)cc1C)c1nc(C)c(C)cc1C` [compound 256], the logP was 1.84^[a].

On to `CCOC(=O)c1cccc(C(C)=NOCCCON=C(C)c2cccc(C(=O)OCC)n2)n1` [compound 257], for which the logP was 4.06^[a].

As to `CCOC(=O)c1cccc(C(C)=NOCC(C)CON=C(C)c2cccc(C(=O)OCC)n2)n1` (stereo not drawn) [compound 258], the logP was 5.03^[a].

Consider `CC(=NOCCCON=C(C)c1cc(C)n(C)n1)c1cc(C)n(C)n1` [compound 259], for which the logP was 2.70^[a].

Turning to `CC(=NOCCCON=C(C)c1ccc2c(n1)CCCC2)c1ccc2c(n1)CCCC2` [compound 305], the logP was 3.96^[a].

Take `CC(=NOCC(C)CON=C(C)c1cccc(C(F)F)n1)c1cccc(C(F)F)n1` (stereo not drawn) [compound 306]: the logP is 5.49^[a].

Staying with this data set, now noted: value marked [b].
As to `COc1cc(O)nc(C(C)=NOCC(C)CON=C(C)c2nc(OC)cc(OC)n2)n1` (stereo not drawn) [compound 271], the logP is 3.05^[b].

On to `CC(=NOCC(C)CON=C(C)c1nc(C)cc(C(F)(F)F)n1)c1nc(C)cc(C(F)(F)F)n1` (stereo not drawn) [compound 273], for which the logP is 4.86^[b].

As to `C=C(CON=C(C)c1cc(C)c(C)nn1)CON=C(C)c1cc(C)c(C)nn1` [compound 284], the logP was 2.33^[b].

As for `CC(=NOC[C@@H]1O[C@H]1CON=C(C)c1cccc(C)n1)c1cccc(C)n1` [compound 285], the logP is 2.17^[b].

As to `CC(=NOC[C@@H]1O[C@@H]1CON=C(C)c1cccc(C)n1)c1cccc(C)n1` [compound 287], the logP was 2.42^[b].

Take `C=C(CON=C(C)c1cccc(COC)n1)CON=C(C)c1cccc(COC)n1` [compound 291]: the logP was 4.44^[b].

Take `CC(=NOCC(O)CON=C(C)c1cccc(C)n1)c1cccc(C)n1` (stereo not drawn) [compound 293]: the logP was 1.46^[b].

As to `CC(=NOCC(C)CON=C(C)c1cc(C)c(C)nn1)c1cc(C)c(C)nn1` (stereo not drawn) [compound 309], the logP is 2.58^[b].

For `CC(=NOCC(C)CON=C(C)c1cccc(C)[n+]1[O-])c1cccc(C)[n+]1[O-]` (stereo not drawn) [compound 314], the logP was 1.69^[b].

`CC(=NOCC(O)CON=C(C)c1ccc(C)c(C)n1)c1ccc(C)c(C)n1` (stereo not drawn) [compound 323]: the logP is 1.36^[b].

As to `CC(=NOCCCCON=C(C)c1cccc(Cc2ccccc2)n1)c1cccc(C)n1` [compound 324], the logP is 5.84^[b].

For the compound `CC(=NOCCCCON=C(c1ccccc1)c1ncccc1C)c1cccc(C)n1` [compound 325], the logP was 3.89^[b].

On to `CC(=NOCCCCON=C(C)c1cccc(CC(C)C)n1)c1cccc(C)n1` [compound 326], for which the logP was 6.16^[b].

On to `CCc1cccc(C(C)=NOCCCCON=C(C)c2cccc(C)n2)n1` [compound 329], for which the logP is 4.72^[b].

With `CCCC(=NOCCCCON=C(C)c1cccc(C)n1)c1cccc(C)n1` [compound 330], the logP was 4.82^[b].

With `CC(=NOCCCCON=C(c1ccccc1)c1cccc(C)n1)c1cccc(C)n1` [compound 332], the logP is 3.51^[b].

As for `CCC(=NOCCCCON=C(C)c1cccc(C)n1)c1cccc(C)n1` [compound 333], the logP was 4.10^[b].

`CC(=NOCCCCON=C(c1cccc(C)n1)C(C)C)c1cccc(C)n1` [compound 334]: the logP is 4.72^[b] (isomer B).

In the case of `CC(=NOCCCCON=C(c1cccc(C)n1)C1CC1)c1cccc(C)n1` [compound 335], the logP was 3.28^[b].

With `CC(=NOCCCCON=C(C)c1ccnc(C)n1)c1cccc(C)n1` [compound 336], the logP is 3.28^[b].

For `CC(=NOCCCCON=C(C)c1cccc(C)n1)c1cncc(C)c1` [compound 337], the logP is 2.20^[b].

As to `CC(=NOCCCCON=C(C)c1cccc(C)n1)c1ccnc(C)c1` [compound 338], the logP was 1.71^[b].

Take `CC(=NOCCCCCCON=C(Cc1ccccc1)c1ncccc1C)c1cccc(C)n1` [compound 339]: the logP is 5.90^[b] (isomer B).

For the compound `CC(=NOCCCCCCON=C(C)c1cccc(Cc2ccccc2)n1)c1cccc(C)n1` [compound 340], the logP is 6.86^[b].

Consider `CC(=NOCCCCCCON=C(c1ccccc1)c1ncccc1C)c1cccc(C)n1` [compound 341], for which the logP is listed as 4.98^b].

Turning to `CC(=NOCCCCCCON=C(C)c1cccc(CC(C)C)n1)c1cccc(C)n1` [compound 342], the logP was 7.36^[b].

`CCC(=NOCCCCCCON=C(C)c1cccc(C)n1)c1ncccc1C` [compound 343]: the logP was 4.87^[b] (isomer B).

Consider `CC(=NOCCCCCCON=C(C)c1cnnc(C)n1)c1cccc(C)n1` [compound 344], for which the logP is 4.15^[b].

Regarding `CCCC(=NOCCCCCCON=C(C)c1cccc(C)n1)c1cccc(C)n1` [compound 345], the logP is 6.16^[b].

Staying with this data set, now noted: value marked [c].
As to `CC(=NOCC(O)CON=C(C)c1ccc(C)c(C)n1)c1ccc(C)c(C)n1` (stereo not drawn) [compound 323], the logP is 3.81^[c].
